{
  "source": "patent US7226911B2",
  "about": "“Hair keratin-associated proteins” (Keio University, priority 2001, dated 2007)",
  "key": {"[1]": {"test_system": "hair cycle of mouse body hair", "experiment": "effect of the functional peptide to the hair cycle of mouse body hair", "format": "in vivo", "conditions": "C3H/He mouse, applied to skin, 1% peptide", "source_text": "For the application of KAPs as hair growth agent, there is a possible problem for permeability to tissues in an intact size. Therefore, from the point of view of being a hair constituent element, the minimum repeat unit on KAP sequences was searched and designing of peptides was attempted with the crosslinking within the tissues as a goal. After preparing alignment from the primary sequence of amino acid obtained in Example 7, repeat motifs are searched, and 2 functional peptides, namely mouse high sulfur type KAPs: N′-SCCXPSCCXP-C′ (X: Q, V, R, I) [Seq. ID No. 2031, and mouse high G/Y type KAPs: N′-YGGXGYGSGY-C′ (X: Y, L, F)[Seq. ID No. 204] were designed. By using these functional peptides, the action to hair formation and hair-matrix cells was evaluated. […] Peptide solvent (Plasebo) was used as a negative control, and […] MINOXIDIL was used as a positive control. […] The effect was significant compared not only with peptide solvent as a negative control (FIG. 30), but also with MINOXIDIL of the same concentration, being a positive control (FIG. 31)."}, "mouse hair-matrix cells": {"test_system": "mouse hair-matrix cells", "experiment": "action on isolated mouse hair-matrix cells (energy metabolism activity in the mitochondria; change of form)", "format": "cell-based", "conditions": "during peptide treatment"}},
  "data": [
    {"substance": "N′-YGGXGYGSGY-C′ (X: Y, L, F) [high G/Y type peptide]", "values": [
      {"measurement": "effect to the hair cycle of mouse body hair (duration until hair coat / formation of body hair)", "setting": "[1]", "result": "shortening effect of the duration until hair coat was observed"},
      {"measurement": "change of form of hair-matrix cells", "setting": "mouse hair-matrix cells", "result": "a change of form of hair-matrix cells associated with the differentiation was observed"}
    ]}
  ]
}
